Values quoted from earlier work, collected in PubChem BioAssay AID1259410 (Chemical Carcinogenesis Research Information System (CCRIS), 2018).

Test system: rodent tumor promotion studies, tumor incidence
Assay: CCRIS tumor promotion studies

CCO
outcome (Carcinogen: 1,2-DIMETHYLHYDRAZINE [540-73-8], Doses [Carcinogen]: 21 MG/KG WEEKLY FOR 18 WKS, Doses [Promoter]: 1.23 G/KG ADDED TO DRINKING WATER DAILY FOR 25-27 WKS, Route [Carcinogen]: SUBCUTANEOUS, Route [Promoter]: ORAL (DRINKING WATER), Species: RAT, Strain/Sex: SPRAGUE-DAWLEY/MALE, FEMALE): negative
outcome (Carcinogen: 1,2-DIMETHYLHYDRAZINE, 540-73-8, Doses [Carcinogen]: 30 MG/KG BW 1/WK FOR 4 WK, Doses [Promoter]: 0, 6.6% OF LIQUID DIET BEGINNING 4 WK PRIOR TO CARCINOGEN TREATMENT LIQUID DIETS SUSPENDED FOR 3 WK DURING CARCINOGEN TR, Route [Carcinogen]: SUBCUTANEOUS, Route [Promoter]: ORAL, Species: RAT, Strain/Sex: SPRAGUE-DAWLEY/MALE): rectum: tumors
outcome (Carcinogen: 4-(METHYLNITROSAMINO)-1-(3-PYRIDYL)-1-BUTANONE, 64091-91-4, Doses [Carcinogen]: 0, 50 MG/KG IN DISTILLED WATER ADMINISTERED INTRATRACHEALLY TO MOTHERS ON DAY 15 OF GESTATION, Doses [Promoter]: 10% IN DRINKING WATER ADMINISTERED IN DRINKING WATER TO MOTHERS ON DAYS 5 THROUGH 16 OF PREGNANCY (STUDY DURATION: 48 WK, Route [Carcinogen]: TRANSPLACENTAL, Route [Promoter]: TRANSPLACENTAL, Species: HAMSTER, Strain/Sex: SYRIAN/FEMALE): nasal cavity: tumor; pancreas: tumor; adrenal gland: tumor
outcome (Carcinogen: 4-(METHYLNITROSAMINO)-1-(3-PYRIDYL)-1-BUTANONE, 64091-91-4, Doses [Carcinogen]: 0, 50 MG/KG IN DISTILLED WATER ADMINISTERED INTRATRACHEALLY TO MOTHERS ON DAY 15 OF GESTATION, Doses [Promoter]: 10% IN DRINKING WATER ADMINISTERED IN DRINKING WATER TO MOTHERS ON DAYS 5 THROUGH 16 OF PREGNANCY (STUDY DURATION: 48 WK, Route [Carcinogen]: TRANSPLACENTAL, Route [Promoter]: TRANSPLACENTAL, Species: HAMSTER, Strain/Sex: SYRIAN/MALE): pancreas: tumor; adrenal gland: tumor
outcome (Carcinogen: 4-(METHYLNITROSAMINO)-1-(3-PYRIDYL)-1-BUTANONE, 64091-91-4, Doses [Carcinogen]: 20 MMOL/KG (TOTAL DOSE) 3/WK FOR 4 WK, Doses [Promoter]: 0, 7% (V/V) IN LIQUID DIET FOR 50 WK BEGINNING 1 WK POST CARCINOGEN TREATMENT (STUDY DURATION: 55 WK), Route [Carcinogen]: GAVAGE, Route [Promoter]: ORAL, Species: RAT, Strain/Sex: F344/MALE): esophagus: tumor; oral cavity: tumor; lung: tumor
outcome (Carcinogen: 7,12-DIMETHYLBENZ[A]ANTHRACENE, 57-97-6, Doses [Carcinogen]: 1% PAINTED ON RIGHT BUCCAL POUCH 1/2 D FOR 1 WK, Doses [Promoter]: 0, 5% IN LIQUID DIET BEGINNING 1 WK POST CARCINOGEN TREATMENT AND CONTINUING FOR 35 WK (STUDY DURATION: 35 WK), Route [Carcinogen]: MUCOUS MEMBRANE, Route [Promoter]: ORAL, Species: HAMSTER, Strain/Sex: SYRIAN/MALE): buccal pouch: epidermoid carcinoma
outcome (Carcinogen: 17ALPHA-ETHYNYLESTRADIOL, 57-63-6, NORETHINDRONE ACETATE, 51-98-9, Carcinogen: 17ALPHA-ETHYNYLESTRADIOL, 57-63-6, NORETHINDRONE ACETATE, 51-98-9, Doses [Carcinogen]: 0.075 MG EE AND 6 MG NA IN 0.5 ML OLIVE OIL 1/D FOR 12 MO, Doses [Promoter]: 0, 10% IN DRINKING WATER 5 D/WK FOR 12 MO (STUDY DURATION: 12 MO), Route [Carcinogen]: GAVAGE, GAVAGE, Route [Promoter]: ORAL, Species: RAT, Strain/Sex: WISTAR/FEMALE): liver: hepatocellular carcinoma
outcome (Carcinogen: DIETHYLNITROSAMINE, 55-18-5, Doses [Carcinogen]: 33, 50 PPM IN DRINKING WATER FOR 8 WK, Doses [Promoter]: 10% IN DRINKING WATER FOR 8 WK ADMINISTERED WITH CARCINOGEN (STUDY DURATION: 104 WK), Route [Carcinogen]: ORAL, Route [Promoter]: ORAL, Species: RAT, Strain/Sex: F344/MALE): esophagus: papilloma or carcinoma
outcome (Carcinogen: Diethylnitrosamine, 55-18-5, Doses [Carcinogen]: 40 mg/l for 4 consecutive d/wk for 180 days, study duration 180 d, Doses [Promoter]: 6%, 3 d /wk for 180 d, study duration 180 d, Route [Carcinogen]: Oral (drinking water), Route [Promoter]: Oral (drinking water), Species: Mouse, Strain/Sex: CF1/Female (16, 47/Group)): stomach: squamous cell carcinoma (33% vs 30%); adenocarcinoma (17% vs 15%); both
outcome (Carcinogen: METHYLAZOXYMETHANOL ACETATE, 592-62-1, Doses [Carcinogen]: 25 MG/KG IN SALINE 1/WK FOR 2 WK, Doses [Promoter]: 0.10% IN DRINKING WATER FOR 393 D BEGINNING 1 WK POST CARCINOGEN DOSE (STUDY DURATION: 414 D), Route [Carcinogen]: INTRAPERITONEAL, Route [Promoter]: ORAL, Species: RAT, Strain/Sex: ACI/MALE): large intestine: adenoma, adenocarcinoma
outcome (Carcinogen: N6-(METHYLNITROSO)ADENOSINE, 21928-82-5, Doses [Carcinogen]: 180 MG/KG 3/WK FOR 12 WK, Doses [Promoter]: 0, 15% 3/WK FOR 12 WK ADMINISTERED WITH CARCINOGEN (STUDY DURATION: 18 MO), Route [Carcinogen]: GAVAGE, Route [Promoter]: GAVAGE, Species: MOUSE, Strain/Sex: SWISS/FEMALE): thymus: lymphoma
outcome (Carcinogen: N'-NITROSONORNICOTINE, 16543-55-8, Doses [Carcinogen]: 40 MMOL/KG (TOTAL DOSE) 3/WK FOR 4 WK, Doses [Promoter]: 0, 7% (V/V) IN LIQUID DIET FOR 50 WK BEGINNING 1 WK POST CARCINOGEN TREATMENT (STUDY DURATION: 55 WK), Route [Carcinogen]: GAVAGE, Route [Promoter]: ORAL, Species: RAT, Strain/Sex: F344/MALE): esophagus: tumor; oral cavity: tumor; lung: tumor
outcome (Carcinogen: N-METHYL-N'-NITRO-N-NITROSOGUANIDINE, 70-25-7, Doses [Carcinogen]: 50 UG/ML IN DRINKING WATER FOR 20 WK, Doses [Promoter]: 0, 2.5 ML/KG BW OF 20% AGENT IN 0.9% SALINE SOLUTION 1/2D BEGINNING 1 WK POST LAST CARCINOGEN DOSE AND CONTINUING FOR DU, Route [Carcinogen]: ORAL, Route [Promoter]: INTRAPERITONEAL, Species: RAT, Strain/Sex: WISTAR/MALE): stomach: adenocarcinoma
outcome (Carcinogen: N-METHYL-N-NITROSOUREA, 684-93-5, Doses [Carcinogen]: 30 MG/KG BW ONCE AT 50 D OF AGE, Doses [Promoter]: 0, 15% OF CALORIES IN DIET FOR 4 WK BEGINNING 3 WK PRIOR TO CARCINOGEN DOSE (STUDY DURATION: 25 WK), Route [Carcinogen]: INTRAPERITONEAL, Route [Promoter]: ORAL, Species: RAT, Strain/Sex: SPRAGUE-DAWLEY/FEMALE): mammary gland: adenocarcinoma
outcome (Carcinogen: N-METHYL-N-NITROSOUREA, 684-93-5, Doses [Carcinogen]: 30 MG/KG BW ONCE AT 51 D OF AGE, Doses [Promoter]: 0, 15%, 20% OF CALORIES IN DIET BEGINNING 1 WK POST CARCINOGEN DOSE AND CONTINUING FOR DURATION OF STUDY (STUDY DURATION, Doses [Promoter]: 0, 15%, 20% OF CALORIES IN DIET BEGINNING 1 WK POST CARCINOGEN DOSE AND CONTINUING FOR DURATION OF STUDY (STUDY DURATION, Route [Carcinogen]: INTRAPERITONEAL, Route [Promoter]: ORAL, Species: RAT, Strain/Sex: SPRAGUE-DAWLEY/FEMALE): mammary gland: adenocarcinoma
outcome (Carcinogen: N-NITROSODIMETHYLAMINE, 62-75-9, Doses [Carcinogen]: 1 PPM IN DRINKING WATER FOR 48 OR 72 WK, Doses [Promoter]: 0, 10% IN DRINKING WATER FOR 48 OR 72 WK (STUDY DURATION: 72 WK), Route [Carcinogen]: ORAL, Route [Promoter]: ORAL, Species: MOUSE, Strain/Sex: STRAIN-A/MALE): lung: tumor
outcome (Carcinogen: N-NITROSODIMETHYLAMINE, 62-75-9, Doses [Carcinogen]: 5 MG/KG ONCE, Doses [Promoter]: 0, 5, 10, 20% SOLUTION ADMINISTERED WITH CARCINOGEN DOSE (STUDY DURATION: 16 WK), Doses [Promoter]: 0, 5, 10, 20% SOLUTION ADMINISTERED WITH CARCINOGEN DOSE (STUDY DURATION: 16 WK), Route [Carcinogen]: GAVAGE, Route [Promoter]: GAVAGE, Species: MOUSE, Strain/Sex: STRAIN-A/MALE): lung: tumor
outcome (Carcinogen: N-NITROSODIMETHYLAMINE, 62-75-9, Doses [Carcinogen]: 5 PPM IN DRINKING WATER FOR 4 WK, Doses [Promoter]: 0, 1, 5, 10% IN DRINKING WATER FOR 4 WK (STUDY DURATION: 16 WK), Doses [Promoter]: 0, 1, 5, 10% IN DRINKING WATER FOR 4 WK (STUDY DURATION: 16 WK), Route [Carcinogen]: ORAL, Route [Promoter]: ORAL, Species: MOUSE, Strain/Sex: STRAIN-A/MALE): lung: tumor
outcome (Carcinogen: N-NITROSOMETHYLBENZYLAMINE, 937-40-6, Doses [Carcinogen]: 0.2 MG/KG BW IN CORN OIL 3/WK FOR 3 WK, Doses [Promoter]: 0, 30% OF TOTAL CALORIES BEGINNING POST CARCINOGEN TREATMENT AND CONTINUING FOR DURATION OF STUDY (STUDY DURATION: 23 WK, Route [Carcinogen]: GAVAGE, Route [Promoter]: ORAL, Species: MOUSE, Strain/Sex: C57BL/FEMALE): esophagus: tumor
outcome (Carcinogen: N-NITROSOMETHYLBENZYLAMINE, 937-40-6, Doses [Carcinogen]: 0.2 MG/KG IN CORN OIL 3/WK FOR 3 WK, Doses [Promoter]: SUBSTITUTED FOR MALTOSE DEXTRIN IN DIET TO PROVIDE 30% OF TOTAL DIETARY CALORIES BEGINNING POST CARCINOGEN TREATMENT AND, Route [Carcinogen]: GAVAGE, Route [Promoter]: ORAL, Species: MOUSE, Strain/Sex: C57BL/FEMALE): esophagus: tumor
outcome (Carcinogen: N-NITROSOMETHYLBENZYLAMINE, 937-40-6, Doses [Carcinogen]: 2.5 MG/KG 3/WK FOR 3 WK, Doses [Promoter]: 1-2% IN LIQUID DIET ON DAY 1 AND INCREASING TO 7% BY DAY 8 OF AGENT TREATMENT BEGINNING 1 WK POST LAST CARCINOGEN DOSE F, Route [Carcinogen]: INTRAPERITONEAL, Route [Promoter]: ORAL, Species: RAT, Strain/Sex: SPRAGUE-DAWLEY/MALE): esophagus: papilloma
outcome (Carcinogen: N-NITROSOPYRROLIDINE, 930-55-2, Doses [Carcinogen]: 6.8 PPM IN DRINKING WATER FOR 4 WK, Doses [Promoter]: 0, 10% IN STERILIZED DISTILLED DRINKING WATER ADMINISTERED WITH CARCINOGEN FOR 4 WK (STUDY DURATION: 36 WK), Route [Carcinogen]: ORAL, Route [Promoter]: ORAL, Species: MOUSE, Strain/Sex: STRAIN-A/MALE): lung: tumor
outcome (Carcinogen: N-NITROSOPYRROLIDINE, 930-55-2, Doses [Carcinogen]: 40 PPM IN DRINKING WATER FOR 4 WK, Doses [Promoter]: 0, 10% IN STERILIZED DISTILLED DRINKING WATER ADMINISTERED WITH CARCINOGEN FOR 4 WK (STUDY DURATION: 36 WK), Route [Carcinogen]: ORAL, Route [Promoter]: ORAL, Species: MOUSE, Strain/Sex: STRAIN-A/MALE): lung: tumor
outcome (Carcinogen: NITROSODIETHYLAMINE, 55-18-5, Doses [Carcinogen]: 6.8 PPM IN DRINKING WATER FOR 4 WK, Doses [Promoter]: 0, 10% IN STERILIZED DISTILLED DRINKING WATER ADMINISTERED WITH CARCINOGEN FOR 4 WK (STUDY DURATION: 36 WK), Route [Carcinogen]: ORAL, Route [Promoter]: ORAL, Species: MOUSE, Strain/Sex: STRAIN-A/MALE): lung: tumor; forestomach: carcinoma
outcome (Doses [Carcinogen]: 1.5 MG/KG IN DMSO 2/WK FOR 10 WK (TOTAL DOSE: 30 MG/KG), Doses [Promoter]: 10% IN DRINKING WATER FOR 56 WK ADMINISTERED 1 WK POST CARCINOGEN DOSES (STUDY DURATION: 57 WK), Route [Carcinogen]: INTRAPERITONEAL, Route [Promoter]: ORAL, Species: RAT, Strain/Sex: ACI/N/MALE): liver: hepatocellular carcinoma, neoplastic nodule
